Test: Measurement of mRNA encapsulation in lipid nanoparticles (Quant-iT Ribogreen)
Format: physicochemical
Settings: Leptin mRNA in LNP
Method: All equipment and disposable supplies are certified free of RNase activity by the manufacturer or rendered RNase free by use of the RNaseZap reagent (LifeTechnologies). mRNA is encapsulated at a cationic lipid amine to mRNA phosphate (N:P) molar ratio of 4:1. Lipids (cationic lipid, DSPC, cholesterol and lipidated PEG or stealth lipid) are dissolved in ethanol. The molar ratios are 40:10:38:2, respectively. The mixture is sonicated briefly, then gently agitated for 5 minutes and then maintained at 37° C. until use. mRNA is exchanged into citrate buffer pH 5.8-6.0 by use of Amicon Ultra-15 centrifugal concentrators, and the final concentration is adjusted to 0.5 mg/ml and held at 37° C. until use. An equal volume of lipids in ethanol, mRNA in citrate buffer, and citrate buffer alone are drawn into disposable syringes.
Tubing leading from syringes containing lipids and mRNA are attached to the T junction, and tubing leading from the syringe containing citrate buffer alone is paired with the tubing exiting the T-junction over a collection vessel containing a stir bar on an active stir plate. Syringes are placed in a syringe pump set to expel contents at a flow rate of 1 ml per minute. The pump is activated, and the collected mRNA in lipid nanoparticles is transferred to SnakeSkin dialysis tubing (10,000 MWCO, Thermo Scientific). Material is dialyzed against RNAse- and pyrogen-free 1× phosphate buffered saline overnight at 4° C.
Percent encapsulation of mRNA in lipid nanoparticles is determined using the Quant-iT Ribogreen RNA Assay kit (Life Technologies). The LNP-mRNA suspension is assayed in buffer (mRNA outside the particle), and buffer plus Triton X-100 detergent (total mRNA). The difference calculated is the mRNA inside the particle. Prepare a 1000 ng/mL stock from the RNA provided in the kit and use this to generate a standard curve (0 ng/ml, 15.63-1000 ng/ml) in TE and TE+0.75% Triton X-100. Prepare LNP-mRNA samples in TE buffer and TE buffer+0.75% Triton X-100 with appropriate dilution so that reading is in the range of standard curve (400-2,000 fold). In a 384-well plate (Costar non-treated #3573) add 0.04 ml of standard (in duplicate) or sample (in triplicate) per well. Dilute Ribogreen reagent 240-fold in TE buffer and add 0.06 ml per well. Mix contents of wells and measure fluorescence (excitation=480 nm, emission=520 nm). Subtract background values (no RNA) from standard and test sample values and determine the concentrations of RNA in the samples using the standard curves. Determine the percent encapsulation of the sample by dividing the difference in concentrations between sample+triton and sample in buffer alone by the sample+triton concentration.

Row | % encapsulation mRNA Leptin | Structure (SMILES)
1 | 97.4% | CCCCC/C=C\C/C=C\CCCCCCCC(=O)OCC(COC(=O)CCC(OCCCCCCCC)OCCCCCCCC)COC(=O)C1CCN(C(C)C)CC1 (stereo not shown) [Example 33, 3-((4,4-bis(octyloxy)butanoyl)oxy)-2-(((9Z,12Z)-octadeca-9,12-dienoyloxy)methyl)propyl 1-isopropylpiperidine-4-carboxylate]
2 | 14.3% | CCCCC/C=C\C/C=C\CCCCCCCC(=O)OCC(COC(=O)CCC(OCCCCCCCC)OCCCCCCCC)COC(=O)[C@@H]1CCCN1C (stereo partly drawn) [Example 37, (2S)-3-((4,4-bis(octyloxy)butanoyl)oxy)-2-(((9Z,12Z)-octadeca-9,12-dienoyloxy)methyl)propyl 1-methylpyrrolidine-2-carboxylate]
3 | 9.6% | CCCCC/C=C\C/C=C\CCCCCCCC(=O)OCC(COC(=O)CCC(OCCCCCCCC)OCCCCCCCC)COC(=O)[C@H]1CCCN1C (stereo partly drawn) [Example 38, (2R)-3-((4,4-bis(octyloxy)butanoyl)oxy)-2-(((9Z,12Z)-octadeca-9,12-dienoyloxy)methyl)propyl 1-methylpyrrolidine-2-carboxylate]
4 | 10.0% | CCCCC/C=C\C/C=C\CCCCCCCC(=O)OCC(COC(=O)CCC(OCCCCCCCC)OCCCCCCCC)COC(=O)C1CN(C)CCO1 (stereo not shown) [Example 39, 3-((4,4-bis(octyloxy)butanoyl)oxy)-2-(((9Z,12Z)-octadeca-9,12-dienoyloxy)methyl)propyl 4-methylmorpholine-2-carboxylate]
5 | 97.5% | CCCCC/C=C\C/C=C\CCCCCCCC(=O)OCC(COC(=O)CCC(OCCCCCCCC)OCCCCCCCC)COC(=O)C1CCN(C)CC1 (stereo not shown) [Example 41, 3-((4,4-bis(octyloxy)butanoyl)oxy)-2-(((9Z,12Z)-octadeca-9,12-dienoyloxy)methyl)propyl 1-methylpiperidine-4-carboxylate]
6 | 90.3% | CCCCC/C=C\C/C=C\CCCCCCCC(=O)OCC(COC(=O)CCC(OCCCCCCCC)OCCCCCCCC)COC(=O)C1CCCN(C)C1 (stereo not shown) [Example 42, 3-((4,4-bis(octyloxy)butanoyl)oxy)-2-(((9Z,12Z)-octadeca-9,12-dienoyloxy)methyl)propyl 1-methylpiperidine-3-carboxylate]
7 | 90.4% | CCCCC/C=C\C/C=C\CCCCCCCC(=O)OCC(COC(=O)CCC(OCCCCCCCC)OCCCCCCCC)COC(=O)OC1CCN(C)C1 (stereo not shown) [Example 47, (9Z,12Z)-3-((4,4-bis(octyloxy)butanoyl)oxy)-2-(((((1-methylpyrrolidin-3-yl)oxy)carbonyl)oxy)methyl)propyl octadeca-9,12-dienoate]
8 | 82.8% | CCCCC/C=C\C/C=C\CCCCCCCC(=O)OCC(COC(=O)CCC(OCCCCCCCC)OCCCCCCCC)COC(=O)OC1CN(C)C1 (stereo not shown) [Example 49, (9Z,12Z)-3-((4,4-bis(octyloxy)butanoyl)oxy)-2-(((((1-methylazetidin-3-yl)oxy)carbonyl)oxy)methyl)propyl octadeca-9,12-dienoate]
9 | 82.3% | CCCCC/C=C\C/C=C\CCCCCCCC(=O)OCC(COC(=O)CCC(OCCCCCCCC)OCCCCCCCC)COC(=O)OCC1CCN(C)CC1 (stereo not shown) [Example 51, (9Z,12Z)-3-((4,4-bis(octyloxy)butanoyl)oxy)-2-(((((1-methylpiperidin-4-yl)methoxy)carbonyl)oxy)methyl)propyl octadeca-9,12-dienoate]

The remaining lines, values behind:

Row | Structure (SMILES) | % encapsulation mRNA Leptin
10 | CCCCC/C=C\C/C=C\CCCCCCCC(=O)OCC(COC(=O)CCCCCCC/C=C\C/C=C\CCCCC)COC(=O)CCN1CCN(C)CC1 [Example 2, (9Z,9′Z,12Z,12′Z)-2-(((3-(4-methylpiperazin-1-yl)propanoyl)oxy)methyl)propane-1,3-diyl bis(octadeca-9,12-dienoate)] | 70.5%
11 | CCCCC/C=C\C/C=C\CCCCCCCC(=O)OCC(COC(=O)CCCCCCC/C=C\C/C=C\CCCCC)COC(=O)CCCN1CCCC1 [Example 3, (9Z,9′Z,12Z,12′Z)-2-(((4-(pyrrolidin-1-yl)butanoyl)oxy)methyl)propane-1,3-diyl bis(octadeca-9,12-dienoate)] | 32.5%
12 | CCCCC/C=C\C/C=C\CCCCCCCC(=O)OCC(COC(=O)CCCCCCC/C=C\C/C=C\CCCCC)COC(=O)CCN1CCOCC1 [Example 10, (9Z,9′Z,12Z,12′Z)-2-(((3-morpholinopropanoyl)oxy)methyl)propane-1,3-diyl bis(octadeca-9,12-dienoate)] | 1.9%
13 | CCCCC/C=C\C/C=C\CCCCCCCC(=O)OCC(COC(=O)CCCCCCC/C=C\C/C=C\CCCCC)COC(=O)CCCN(C)C [Example 11, (9Z,9′Z,12Z,12′Z)-2-(((4-(dimethylamino)butanoyl)oxy)methyl)propane-1,3-diyl bis(octadeca-9,12-dienoate)] | 45.4%
14 | CCCCC/C=C\C/C=C\CCCCCCCC(=O)OCC(COC(=O)CCCCCC(CCCCCC)CCCCCC)COC(=O)OCCCN(CC)CC (stereo not shown) [Example 23, (9Z,12Z)-3-(((3-(diethylamino)propoxy)carbonyl)oxy)-2-(((7-hexyltridecanoyl)oxy)methyl)propyl octadeca-9,12-dienoate] | 82.0%
15 | CCCCC/C=C\C/C=C\CCCCCCCC(=O)OCC(COC(=O)CCCCC(OCCCCCCCC)OCCCCCCCC)COC(=O)OCCCN(CC)CC (stereo not shown) [Example 27, (9Z,12Z)-3-((6,6-bis(octyloxy)hexanoyl)oxy)-2-((((3-(diethylamino)propoxy)carbonyl)oxy)methyl)propyl octadeca-9,12-dienoate] | 80.8%
16 | CCCCC/C=C\C/C=C\CCCCCCCC(=O)OCC(COC(=O)CCC(OCCCCCCCC)OCCCCCCCC)COC(=O)c1ccc(CN(CC)CC)cc1 (stereo not shown) [Example 44, 3-((4,4-bis(octyloxy)butanoyl)oxy)-2-(((9Z,12Z)-octadeca-9,12-dienoyloxy)methyl)propyl 4-((diethylamino)methyl)benzoate] | 22.4%
17 | CCCCC/C=C\C/C=C\CCCCCCCC(=O)OCC(COC(=O)CCC(OCCCCCCCC)OCCCCCCCC)COC(=O)OCCCN1CCCC1 (stereo not shown) [Example 45, (9Z,12Z)-3-((4,4-bis(octyloxy)butanoyl)oxy)-2-((((3-(pyrrolidin-1-yl)propoxy)carbonyl)oxy)methyl)propyl octadeca-9,12-dienoate] | 84.4%
18 | CCCCC/C=C\C/C=C\CCCCCCCC(=O)OCC(COC(=O)CCC(OCCCCCCCC)OCCCCCCCC)COC(=O)OCCCN1CCN(C)CC1 (stereo not shown) [Example 46, (9Z,12Z)-3-((4,4-bis(octyloxy)butanoyl)oxy)-2-((((3-(4-methylpiperazin-1-yl)propoxy)carbonyl)oxy)methyl)propyl octadeca-9,12-dienoate] | 63.5%
19 | CCCCC/C=C\C/C=C\CCCCCCCC(=O)OCC(COC(=O)CCC(OCCCCCCCC)OCCCCCCCC)COC(=O)OC1CCN(CC)CC1 (stereo not shown) [Example 50, (9Z,12Z)-3-((4,4-bis(octyloxy)butanoyl)oxy)-2-(((((1-ethylpiperidin-4-yl)oxy)carbonyl)oxy)methyl)propyl octadeca-9,12-dienoate] | 83.9%

— patent publication US10059655B2, “Lipids and lipid compositions for the delivery of active agents” (priority 2013, dated 2018)
